The source made the active and inactive calls. The calls are words filed in the database; no cut-off is given here.
Columns and labels:
[1] = Solubility in groundnut oil; type: physicochemical
[2] = tested on: Plasmodium yoelii nigeriensis; experiment: Antimalarial activity as reduced parasitaemia against multidrug-resistant Plasmodium yoelii nigeriensis in Swiss mice (Mus musculus) at 96 mg/kg peroral dose for 4 days; type: functional; parameters: scale not given: the % may be the effect or the level left; settings: route oral
[3] = tested on: Plasmodium yoelii nigeriensis; experiment: Antimalarial activity as survival time against multidrug-resistant Plasmodium yoelii nigeriensis in Swiss mice (Mus musculus) at 96 mg/kg peroral dose for 4 days; type: functional; settings: route oral
[4] = tested on: Plasmodium yoelii nigeriensis; experiment: Antimalarial activity as cures against multidrug-resistant Plasmodium yoelii nigeriensis in Swiss mice (Mus musculus) at 96 mg/kg peroral dose for 4 days; type: functional, organism-based; parameters: dose 96 mg/kg
[5] = tested on: Plasmodium yoelii nigeriensis; experiment: Antimalarial activity as reduced parasitaemia against multidrug-resistant Plasmodium yoelii nigeriensis in Swiss mice (Mus musculus) at 48 mg/kg peroral dose for 4 days; type: functional; parameters: scale not given: the % may be the effect or the level left; settings: route oral
[6] = tested on: Plasmodium yoelii nigeriensis; experiment: Antimalarial activity as survival time against multidrug-resistant Plasmodium yoelii nigeriensis in Swiss mice (Mus musculus) at 48 mg/kg peroral dose for 4 days; type: functional; settings: route oral
[7] = tested on: Plasmodium yoelii nigeriensis; experiment: Antimalarial activity as cures against multidrug-resistant Plasmodium yoelii nigeriensis infected Swiss mice (Mus musculus) at 48 mg/kg peroral dose over 4 days; type: functional, organism-based; parameters: dose 48 mg/kg
[8] = tested on: Plasmodium yoelii nigeriensis; experiment: Antimalarial activity as reduced parasitaemia against multidrug-resistant Plasmodium yoelii nigeriensis in Swiss mice (Mus musculus) at 24 mg/kg peroral dose for 4 days; type: functional; parameters: scale not given: the % may be the effect or the level left; settings: route oral
[9] = tested on: Plasmodium yoelii nigeriensis; experiment: Antimalarial activity as survival time against multidrug-resistant Plasmodium yoelii nigeriensis in Swiss mice (Mus musculus) at 24 mg/kg peroral dose for 4 days; type: functional; settings: route oral

Row | SMILES | solubility [1] | Activity [2] [%] | Survival [3] [days] | Activity [4] | Activity [5] [%] | Survival [6] [days] | Activity [7] | Activity [8] [%] | Survival [9] [days]
1 | C=C(c1ccc(Oc2ccc3ccc(Oc4ccc(C(=C)C5COC6(CCCCC6)OO5)cc4)cc3c2)cc1)C1COC2(CCCCC2)OO1 (centres undefined) | Insoluble | – | – | – | – | – | – | – | –
2 | C=C(c1ccc(Oc2ccc3ccc(Oc4ccc(C(=C)C5COC6(OO5)C5CC7CC(C5)CC6C7)cc4)cc3c2)cc1)C1COC2(OO1)C1CC3CC(C1)CC2C3 (centres undefined) | – | 36.07 | 7.4 | inactive | – | – | – | – | –
3 | C=C(c1ccc(OCCOc2ccc(C(=C)C3COC4(CCCC4)OO3)cc2)cc1)C1COC2(CCCC2)OO1 (centres undefined) | – | 100 | >28 | Active | 87.76 | 12.2 | inactive | – | –
4 | C=C(c1ccc(OCC(O)COc2ccc(C(=C)C3COC4(CCCC4)OO3)cc2)cc1)C1COC2(CCCC2)OO1 (centres undefined) | – | 100 | >28 | Active | 74.32 | 9.6 | inactive | – | –
5 | C=C(c1ccc(OCCOc2ccc(C(=C)C3COC4(CCCCC4)OO3)cc2)cc1)C1COC2(CCCCC2)OO1 (centres undefined) | – | 86.29 | 10.6 | inactive | – | – | – | – | –
6 | C=C(c1ccc(Oc2cccc(C(=C)C3COC4(OO3)C3CC5CC(C3)CC4C5)c2)cc1)C1COC2(OO1)C1CC3CC(C1)CC2C3 (centres undefined) | – | 7.16 | 7.6 | inactive | – | – | – | – | –
7 | C=C(c1ccc(Oc2cccc(C(=C)C3COC4(CCCCC4)OO3)c2)cc1)C1COC2(CCCCC2)OO1 (centres undefined) | – | 76.79 | 10 | inactive | – | – | – | – | –
8 | C=C(c1ccc(Oc2ccc(Oc3ccc(C(=C)C4COC5(CCCC5)OO4)cc3)cc2)cc1)C1COC2(CCCC2)OO1 (centres undefined) | – | 50.83 | 7.6 | inactive | – | – | – | – | –
9 | C=C(c1ccc(OCCOc2ccc(C(=C)C3COC4(OO3)C3CC5CC(C3)CC4C5)cc2)cc1)C1COC2(OO1)C1CC3CC(C1)CC2C3 (centres undefined) | – | 66.39 | 7.6 | inactive | – | – | – | – | –
10 | C=C(c1ccc(OCCCOc2ccc(C(=C)C3COC4(OO3)C3CC5CC(C3)CC4C5)cc2)cc1)C1COC2(OO1)C1CC3CC(C1)CC2C3 (centres undefined) | – | 32.54 | 7.4 | inactive | – | – | – | – | –
11 | C=C(c1ccc(Oc2ccc(C(=C)C3COC4(CCCC4)OO3)cc2)cc1)C1COC2(CCCC2)OO1 (centres undefined) | – | 100 | >28 | Active | 100 | >28 | Active | 100 | >21.2
12 | C=C(c1ccc(OCCCOc2ccc(C(=C)C3COC4(CCCC4)OO3)cc2)cc1)C1COC2(CCCC2)OO1 (centres undefined) | – | 100 | >28 | Active | 100 | 12.8 | inactive | – | –
13 | C=C(c1ccc(OCC(O)COc2ccc(C(=C)C3COC4(CCCCC4)OO3)cc2)cc1)C1COC2(CCCCC2)OO1 (centres undefined) | – | 100 | >28 | Active | 75.86 | 8 | inactive | – | –
14 | C=C(c1ccc(Oc2cc(Oc3ccc(C(=C)C4COC5(CCCC5)OO4)cc3)cc(Oc3ccc(C(=C)C4COC5(CCCC5)OO4)cc3)c2)cc1)C1COC2(CCCC2)OO1 (centres undefined) | – | 3.22 | 7.2 | inactive | – | – | – | – | –
15 | C=C(c1ccc(Oc2ccc(Oc3ccc(C(=C)C4COC5(CCCCC5)OO4)cc3)cc2)cc1)C1COC2(CCCCC2)OO1 (centres undefined) | – | 47.33 | 8.6 | inactive | – | – | – | – | –
16 | C=C(c1ccc(Oc2cccc3c(Oc4ccc(C(=C)C5COC6(OO5)C5CC7CC(C5)CC6C7)cc4)cccc23)cc1)C1COC2(OO1)C1CC3CC(C1)CC2C3 (centres undefined) | – | 12.27 | 7.4 | inactive | – | – | – | – | –
17 | C=C(c1ccc(Oc2cccc3c(Oc4ccc(C(=C)C5COC6(CCCC6)OO5)cc4)cccc23)cc1)C1COC2(CCCC2)OO1 (centres undefined) | – | 40.05 | 8.4 | inactive | – | – | – | – | –
18 | C=C(c1ccc(Oc2ccc(Oc3ccc(C(=C)C4COC5(OO4)C4CC6CC(C4)CC5C6)cc3)cc2)cc1)C1COC2(OO1)C1CC3CC(C1)CC2C3 (centres undefined) | – | 38.46 | 9 | inactive | – | – | – | – | –
19 | C=C(c1ccc(Oc2cccc3c(Oc4ccc(C(=C)C5COC6(CCCCC6)OO5)cc4)cccc23)cc1)C1COC2(CCCCC2)OO1 (centres undefined) | – | 16.36 | 8.2 | inactive | – | – | – | – | –
20 | C=C(c1ccc(Oc2ccc3ccc(Oc4ccc(C(=C)C5COC6(CCCC6)OO5)cc4)cc3c2)cc1)C1COC2(CCCC2)OO1 (centres undefined) | – | 42.29 | 7.8 | inactive | – | – | – | – | –
21 | C=C(c1ccc(Oc2cccc(C(=C)C3COC4(CCCC4)OO3)c2)cc1)C1COC2(CCCC2)OO1 (centres undefined) | – | 100 | >28 | Active | 100 | 12.2 | inactive | – | –
22 | C=C(c1ccc(OCCCOc2ccc(C(=C)C3COC4(CCCCC4)OO3)cc2)cc1)C1COC2(CCCCC2)OO1 (centres undefined) | – | 100 | >28 | Active | 87.47 | 10.8 | inactive | – | –
23 | C=C(c1ccc(Oc2cc(Oc3ccc(C(=C)C4COC5(OO4)C4CC6CC(C4)CC5C6)cc3)cc(Oc3ccc(C(=C)C4COC5(OO4)C4CC6CC(C4)CC5C6)cc3)c2)cc1)C1COC2(OO1)C1CC3CC(C1)CC2C3 (centres undefined) | – | 5.47 | 7.4 | inactive | – | – | – | – | –
24 | C=C(c1ccc(Oc2cc(Oc3ccc(C(=C)C4COC5(CCCCC5)OO4)cc3)cc(Oc3ccc(C(=C)C4COC5(CCCCC5)OO4)cc3)c2)cc1)C1COC2(CCCCC2)OO1 (centres undefined) | – | 26.37 | 8.4 | inactive | – | – | – | – | –
25 | CCO[C@@H]1C[C@@H]2CC[C@@H](C)[C@@H]3CC[C@]4(C)OO[C@@]23[C@H](O1)O4 | – | – | >28 | – | 100 | – | Active | 100 | –
26 | C=C(c1ccc(OCC(O)COc2ccc(C(=C)C3COC4(OO3)C3CC5CC(C3)CC4C5)cc2)cc1)C1COC2(OO1)C1CC3CC(C1)CC2C3 (centres undefined) | – | 26.76 | 8.6 | inactive | – | – | – | – | –
27 | C=C(c1ccc(Oc2ccc(C(=C)C3COC4(OO3)C3CC5CC(C3)CC4C5)cc2)cc1)C1COC2(OO1)C1CC3CC(C1)CC2C3 (centres undefined) | – | 36.74 | 7.2 | inactive | – | – | – | – | –
28 | C=C(c1ccc(Oc2ccc(C(=C)C3COC4(CCCCC4)OO3)cc2)cc1)C1COC2(CCCCC2)OO1 (centres undefined) | – | 100 | >28 | Active | 100 | 11.8 | inactive | – | –

Reference: ChEMBL document CHEMBL1140218, “Novel bis- and tris-1,2,4-trioxanes: synthesis and antimalarial activity against multidrug-resistant Plasmodium yoelii in Swiss mice” (J Med Chem, 2008)
